Data reported in PubChem BioAssay (NCI).
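Protocol summary: plate cells (96-well), add compound at 5 concentrations, incubate 48 h, interpolate endpoints linearly. GI50 marks 50% less growth. At the TGI there is no net growth.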

What was measured:
Experiment in all cases: growth of human tumour cells (NCI), 48 h
U251 CNS = tested on: U251 CNS
SF-268 CNS = tested on: SF-268 CNS
COLO 205 colon = tested on: COLO 205 colon
HOP-92 NSCLC = tested on: HOP-92 NSCLC
OVCAR-8 ovarian = tested on: OVCAR-8 ovarian
HOP-62 NSCLC = tested on: HOP-62 NSCLC
CCRF-CEM leukemia = tested on: CCRF-CEM leukemia
CAKI-1 renal = tested on: CAKI-1 renal
MDA-MB-435 = tested on: MDA-MB-435
T-47D breast = tested on: T-47D breast

Compound | TGI (U251 CNS) | TGI (SF-268 CNS) | TGI (COLO 205 colon) | TGI (HOP-92 NSCLC) | TGI (OVCAR-8 ovarian) | TGI (HOP-62 NSCLC) | TGI (CCRF-CEM leukemia) | TGI (CAKI-1 renal) | GI50 (U251 CNS) | GI50 (SF-268 CNS) | GI50 (COLO 205 colon) | GI50 (MDA-MB-435) | TGI (MDA-MB-435) | GI50 (HOP-92 NSCLC) | GI50 (OVCAR-8 ovarian) | GI50 (T-47D breast) | TGI (T-47D breast) | GI50 (HOP-62 NSCLC) | GI50 (CAKI-1 renal) | GI50 (CCRF-CEM leukemia)
Nc1nc2ncn(CC(O)COC(=O)c3ccccc3)c2c(=O)[nH]1 (stereo not given) | > 100 µM | > 100 µM | > 100 µM | > 100 µM | > 100 µM | > 100 µM | > 100 µM | > 100 µM |  |  |  |  |  |  |  |  |  |  |  | 
N[C@@H](CSSC[C@H](N)C(=O)N1CCn2cc(-c3ccccc3)nc2[C@@H]1CC1CCCCC1)C(=O)N1CCn2cc(-c3ccccc3)nc2[C@@H]1CC1CCCCC1 | 2.76 µM | 2.46 µM | 3.27 µM | 5.8 µM | 5.76 µM | 3.25 µM |  | 4.6 µM | 1.37 µM | 0.344 µM | 1.79 µM | 0.331 µM | 1.45 µM | 2.45 µM | 1.87 µM | 0.543 µM | 2.02 µM | 1.59 µM | 1.91 µM | 
ClCCCCOC1CCCCO1 (stereo not given) | > 100 µM | > 100 µM | > 100 µM | > 100 µM | > 100 µM | > 100 µM |  | > 100 µM |  |  |  |  |  |  |  |  |  |  |  | 
c1ccc2c(c1)N=C(c1ccc3ccccc3c1)CC(c1cccc3ccccc13)S2 (stereo not given) | > 100 µM | > 100 µM | > 100 µM |  | > 100 µM | > 100 µM | 33.5 µM | > 100 µM |  |  |  |  |  |  |  |  |  |  |  | 
N=C1/C(=C2\Nc3ccccc3S2)CC(=O)N1c1ccc(SC(F)F)cc1 | 29.7 µM | > 100 µM | > 100 µM |  | > 100 µM | 14.7 µM | > 100 µM | > 100 µM | 2.74 µM | 4.45 µM | 11.2 µM | 7.69 µM | > 100 µM |  | 7.42 µM | 27.8 µM | > 100 µM | 1.49 µM | 8.7 µM | 0.839 µM
N#Cc1cn(-c2c3ccccc3nc3ccccc23)c(=O)[nH]c1=O | 71 µM | 29.7 µM | 64.3 µM | 23.1 µM | 27.6 µM |  | 41.7 µM | 45.6 µM |  |  |  |  |  |  |  |  |  |  |  | 
CC1CC(c2ccc(Cl)c(Cl)c2)=Nc2ccccc2S1 (stereo not given) | > 100 µM | > 100 µM | > 100 µM | > 100 µM | > 100 µM | > 100 µM | > 100 µM | > 100 µM |  |  |  |  |  |  |  |  |  |  |  | 
Cc1ccc2nc3c(C)cc(=O)cc-3sc2c1 | > 100 µM | > 100 µM | 72.2 µM | 76.7 µM | > 100 µM | 58.8 µM | 33.1 µM | 37.4 µM |  |  |  |  |  |  |  |  |  |  |  | 
NCC1(N2CCOCC2)C2CCCC21CNc1ccccc1 (stereo not given) | > 100 µM | > 100 µM | > 100 µM | > 100 µM | > 100 µM | > 100 µM | > 100 µM | > 100 µM |  |  |  |  |  |  |  |  |  |  |  | 
CN1CCc2cc3c4cc2C1Cc1ccc(cc1)Oc1cc(ccc1O)CC1c2c(cc(O)c(c2O4)O3)CCN1C (stereo not given) | 3.16 µM | 6.18 µM | 21.9 µM | 8.13 µM | 8.55 µM | 11.2 µM | 14 µM | 34.8 µM |  |  |  |  |  |  |  |  |  |  |  | 
O=C(NC1C(=O)NNC1c1ccccc1Cl)c1ccccc1 (stereo not given) | > 100 µM | > 100 µM | > 100 µM | > 100 µM | > 100 µM | > 100 µM | > 100 µM | > 100 µM |  |  |  |  |  |  |  |  |  |  |  | 
